pIC50, pKi: −log10 of the molar value.

What all share (format): in vitro ADME
In one data set the target is T1, CYP2D6 (Homo sapiens, UniProt P10635).
T1 construct: pooled human liver microsomes (0.2 mg/mL); tissue Corning Life Sciences; host or cells: pooled human liver microsomes (150 donors)
In words: CYP2D6 bufuralol 1′-hydroxylase inhibition in human liver microsomes. Particulars: at 50 µM. As for the experimental part: (§1) After a 3-min pre-incubation at 37 °C, the reactions were initiated by addition of NADPH and incubation proceeded for 15 min at 37 °C in a shaking water bath. […] The incubation mixtures were centrifuged (13,000× g, 4 min, 4 °C). All assays were performed in triplicate and mean values were used in calculations.
(§2) Each reaction was initiated by adding the seven-CYP probe substrate cocktail.
(§3) The metabolites formed from CYP substrates were quantified simultaneously by a LC-MS/MS method described previously. The ESI source settings in positive-ion mode for metabolite ionization were: capillary voltage, 4200 V; vaporizer temperature, 350 °C; capillary temperature, 330 °C; sheath gas pressure, 35 psi; and auxiliary gas pressure, 15 psi. […] Analytical data were processed using Xcalibur software (version 2.1, Thermo Scientific).
(§4) The apparent kinetic parameters for inhibitory potential (Ki and kinact values) and inhibition mode were estimated from the fitted curves using the Enzyme Kinetics program (ver. 1.1; Systat Software Inc., San Jose, CA, USA).

Another data set concerns the target T2, UGT1A6 (Homo sapiens, UniProt P19224).
T2 construct: pooled human liver microsomes (0.2 mg/mL), 5 mM UDPGA; tissue Corning Life Sciences; host or cells: pooled human liver microsomes (150 donors)
T2 sequence (P19224 27-532): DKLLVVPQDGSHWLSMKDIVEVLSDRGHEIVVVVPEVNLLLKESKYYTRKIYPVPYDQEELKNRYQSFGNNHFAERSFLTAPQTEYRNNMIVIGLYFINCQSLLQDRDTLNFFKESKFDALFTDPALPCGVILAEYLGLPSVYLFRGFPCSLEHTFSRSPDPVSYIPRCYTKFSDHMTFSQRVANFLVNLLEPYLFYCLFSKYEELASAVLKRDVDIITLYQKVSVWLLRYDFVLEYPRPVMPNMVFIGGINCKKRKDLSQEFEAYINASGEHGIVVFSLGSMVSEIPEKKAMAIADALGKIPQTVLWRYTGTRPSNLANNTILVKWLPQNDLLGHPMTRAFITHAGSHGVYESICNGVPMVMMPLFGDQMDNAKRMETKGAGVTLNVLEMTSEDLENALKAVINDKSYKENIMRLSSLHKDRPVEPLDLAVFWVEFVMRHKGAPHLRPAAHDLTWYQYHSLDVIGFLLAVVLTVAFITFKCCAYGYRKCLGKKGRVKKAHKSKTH
In words: UGT1A6 N-acetylserotonin glucuronidation inhibition in human liver microsomes. The conditions noted are these: at 50 µM. How it is done:
(§5) After 3 min of pre-incubation at 37 °C, the reactions were initiated by addition of UDPGA; incubation continued for 60 min at 37 °C in a shaking water bath. The reaction was stopped by placing the tubes on ice and adding 50 µL ice-cold acetonitrile containing internal standards (propofol glucuronide for chenodeoxycholic acid 24-acyl-β-glucuronide and mycophenolic acid glucuronide, and meloxicam for SN-38 glucuronide, trifluoperazine glucuronide, N-acetylserotonin β-D-glucuronide, and naloxone 3-β-D-glucuronide). The incubation mixtures were centrifuged (13,000× g, 4 min, 4 °C). All assays were performed in triplicate and average values were used in calculations.
(§6) The metabolites formed from the six UGT cocktail substrates were measured simultaneously using the LC-MS/MS method. The ESI source settings in both positive- and negative-ion modes for metabolite ionization were: capillary voltage, 4200 V; vaporizer temperature, 350 °C; capillary temperature, 330 °C; sheath gas pressure, 35 psi; and auxiliary gas pressure, 15 psi. […] Data were processed using Xcalibur software.
as §4

The target in a further data set is T3, UGT1A3 (Homo sapiens, UniProt P35503).
T3 construct: tissue Corning Life Sciences; host or cells: pooled human liver microsomes (150 donors)
T3 sequence (P35503 29-534): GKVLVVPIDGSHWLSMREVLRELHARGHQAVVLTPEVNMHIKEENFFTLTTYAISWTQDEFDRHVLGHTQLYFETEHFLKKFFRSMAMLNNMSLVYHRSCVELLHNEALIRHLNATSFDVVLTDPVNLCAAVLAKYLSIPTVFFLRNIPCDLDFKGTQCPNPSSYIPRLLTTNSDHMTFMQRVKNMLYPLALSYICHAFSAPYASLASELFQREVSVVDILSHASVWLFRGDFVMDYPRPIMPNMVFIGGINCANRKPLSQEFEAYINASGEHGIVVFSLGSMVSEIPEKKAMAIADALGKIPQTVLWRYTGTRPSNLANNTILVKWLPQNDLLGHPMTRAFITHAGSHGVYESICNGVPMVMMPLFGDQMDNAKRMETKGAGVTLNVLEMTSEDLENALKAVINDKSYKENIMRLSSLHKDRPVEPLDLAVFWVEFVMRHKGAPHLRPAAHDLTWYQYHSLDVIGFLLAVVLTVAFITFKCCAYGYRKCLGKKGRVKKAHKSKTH
In words: UGT1A3 chenodeoxycholic acid 24-acyl-glucuronidation inhibition in human liver microsomes. As for the experimental part: as §5
The reactions were initiated by addition of UDPGA at 37 °C and stopped after 60 min by placing the incubation tubes on ice and adding 100 μL of ice-cold methanol containing propofol glucuronide (internal standard for UGT1A3) or meloxicam (internal standard for UGT2B7). The incubation mixtures were centrifuged (13,000× g, 4 min, 4 °C), and then, 50 μL of the supernatant was diluted with 50 μL of water. Aliquots (5 μL) of the diluted supernatants were analyzed by LC-MS/MS.
as §6, §4

Another data set addresses T4, CYP2A6 (Homo sapiens, UniProt P11509).
T4 construct: pooled human liver microsomes (0.2 mg/mL); tissue Corning Life Sciences; host or cells: pooled human liver microsomes (150 donors)
T4 sequence (P11509 1-494): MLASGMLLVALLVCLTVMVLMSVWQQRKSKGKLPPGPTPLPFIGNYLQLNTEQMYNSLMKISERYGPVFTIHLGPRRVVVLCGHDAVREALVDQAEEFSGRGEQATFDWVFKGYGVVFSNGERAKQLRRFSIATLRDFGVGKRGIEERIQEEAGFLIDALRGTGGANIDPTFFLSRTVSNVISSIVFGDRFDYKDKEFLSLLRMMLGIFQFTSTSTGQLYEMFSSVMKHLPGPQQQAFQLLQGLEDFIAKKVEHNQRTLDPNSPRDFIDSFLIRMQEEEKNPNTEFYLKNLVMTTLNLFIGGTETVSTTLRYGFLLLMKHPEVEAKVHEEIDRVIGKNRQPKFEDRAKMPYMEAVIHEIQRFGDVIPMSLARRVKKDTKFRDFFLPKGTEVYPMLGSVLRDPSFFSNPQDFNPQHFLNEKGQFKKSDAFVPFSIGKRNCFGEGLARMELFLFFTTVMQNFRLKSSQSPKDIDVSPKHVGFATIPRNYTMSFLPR
In words: CYP2A6 coumarin 7-hydroxylase inhibition in pooled human liver microsomes (substrate cocktail, LC-MS/MS). Particulars: at 50 µM. As for the experimental part: as §1, §2, §3, §4

T1 sequence (P10635 whole entry): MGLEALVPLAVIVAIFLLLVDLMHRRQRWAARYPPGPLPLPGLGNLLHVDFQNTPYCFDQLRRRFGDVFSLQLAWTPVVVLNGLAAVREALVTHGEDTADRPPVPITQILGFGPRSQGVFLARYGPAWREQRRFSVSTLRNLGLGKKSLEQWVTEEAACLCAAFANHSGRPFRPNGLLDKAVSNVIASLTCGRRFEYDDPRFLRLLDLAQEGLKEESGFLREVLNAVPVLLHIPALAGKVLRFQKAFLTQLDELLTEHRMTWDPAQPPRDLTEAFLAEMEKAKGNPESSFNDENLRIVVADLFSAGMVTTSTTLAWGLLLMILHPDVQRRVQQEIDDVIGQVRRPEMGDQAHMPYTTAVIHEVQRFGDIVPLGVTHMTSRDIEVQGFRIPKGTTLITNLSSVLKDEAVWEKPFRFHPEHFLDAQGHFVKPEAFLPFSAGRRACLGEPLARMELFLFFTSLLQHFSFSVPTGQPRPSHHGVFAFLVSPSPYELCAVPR

Consider `O=C(c1cccc2ccccc12)c1cn(CCCCCF)c2ccccc12` [AM-2201, 1-(5-fluoropentyl-1H-indol-3-yl)-(naphthalene-1-yl)methanone], for which the “inhibition of CYP2D6-mediated bufuralol 1′-hydroxylation” value on CYP2D6 is “negligibly inhibited”. The “inhibition of UGT1A6-catalyzed N-acetylserotonin glucuronidation” value at UGT1A6 is “negligibly inhibited”. This compound also gave a negative logarithm of the Ki (pKi) at UGT1A3 of 5.37. In addition, the pIC50 is 5.37 at UGT1A3 (IC50, UGT1A3-catalyzed chenodeoxycholic acid 24-acyl-glucuronidation, abstract) and 5.19 against UGT1A3 (IC50, UGT1A3 chenodeoxycholic acid 24-acyl-glucuronidation, 2 μM chenodeoxycholic acid, human liver microsomes). Moreover, on UGT1A3 (UGT1A3 chenodeoxycholic acid 24-acyl-glucuronidation), the Inhibition Mode entry is “competitively inhibited”. Besides, on CYP2A6, the “inhibition of CYP2A6-mediated coumarin 7-hydroxylation” value was “negligibly inhibited”.

(Values after PMC6155437 (Molecules : A Journal of Synthetic Chemistry and Natural …, 2017).)
